Assay results: patent US9181236B2, “2-spiro-substituted iminothiazines and their mono-and dioxides as bace inhibitors, compositions and their use” (Merck Sharp & Dohme Corp., priority 2011, dated 2015)

How the values were obtained:
[1] = molecular target: purified human autoBACE-2 (Homo sapiens (Human), UniProt Q9Y5Z0); assay: BACE-2 Assay (BACE-HTRF assay); format: biochemical; conditions: Ki calculated from IC50 using the Cheng-Prusoff equation; read-out: BACE2 Ki
Experimental: Inhibitor IC50s at purified human autoBACE-2 are determined in a time-resolved endpoint proteolysis assay that measures hydrolysis of the QSY7-[…]-Eu-amide FRET peptide substrate (BACE-HTRF assay). […] DMSO is present at 5% final concentration in the assay. Following laser excitation of sample wells at 320 nm, the fluorescence signal at 620 nm is collected for 400 ms following a 50 μs delay on a RUBYstar HTRF plate reader (BMG Labtechnologies). Raw RFU data is normalized to maximum (1.0 nM BACE/DMSO) and minimum (no enzyme/DMSO) RFU values. […] The Ki values are calculated from the IC50 using the Cheng-Prusoff equation.

[2] = molecular target: soluble human BACE1 catalytic domain (Homo sapiens (Human), UniProt P56817); assay: BACE1 HTRF FRET Assay; format: biochemical; conditions: Ki calculated from IC50 using the Cheng-Prusoff equation
soluble human BACE1 catalytic domain, sequence (P56817 75-416): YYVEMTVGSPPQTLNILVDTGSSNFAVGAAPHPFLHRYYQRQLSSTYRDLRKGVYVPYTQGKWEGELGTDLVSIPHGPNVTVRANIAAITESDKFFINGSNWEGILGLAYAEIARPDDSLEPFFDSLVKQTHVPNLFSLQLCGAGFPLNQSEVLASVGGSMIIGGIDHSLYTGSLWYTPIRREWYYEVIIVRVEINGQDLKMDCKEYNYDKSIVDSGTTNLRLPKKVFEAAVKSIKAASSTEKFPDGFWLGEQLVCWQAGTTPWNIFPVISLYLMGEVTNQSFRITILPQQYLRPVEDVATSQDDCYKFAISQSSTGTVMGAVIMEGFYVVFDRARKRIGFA

purified human autoBACE-2, sequence (Q9Y5Z0 63-473 limits assumed): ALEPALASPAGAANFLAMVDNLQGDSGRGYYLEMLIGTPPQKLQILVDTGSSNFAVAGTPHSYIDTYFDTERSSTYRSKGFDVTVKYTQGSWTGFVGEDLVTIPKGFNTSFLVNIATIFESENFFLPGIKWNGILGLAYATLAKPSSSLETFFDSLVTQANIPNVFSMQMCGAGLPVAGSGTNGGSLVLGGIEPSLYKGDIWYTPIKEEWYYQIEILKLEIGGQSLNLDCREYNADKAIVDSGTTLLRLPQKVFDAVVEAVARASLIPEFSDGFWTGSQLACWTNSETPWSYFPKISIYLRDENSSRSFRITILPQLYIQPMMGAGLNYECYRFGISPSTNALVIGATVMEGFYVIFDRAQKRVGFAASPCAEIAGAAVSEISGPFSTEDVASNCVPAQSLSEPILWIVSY

Row | Ki [1] | Ki [2] | Compound
1 | < 50 nM | 113 nM | C[C@@]1(c2sc(-c3cccc(C#N)c3)cc2Cl)CS(=O)(=O)C2(CCOCC2)C(=N)N1 [Example 49]
2 | 2.1 nM | 10.9 nM | C[C@@]1(c2cc(NC(=O)c3ccc(F)cn3)ccc2F)CS(=O)(=O)C2(CCOCC2)C(=N)N1 [Example 30]
3 | < 50 nM | 192 nM | C[C@@]1(c2sc(-c3cncc(C#N)c3)cc2Cl)CS(=O)(=O)[C@@]2(CCOC2)C(=N)N1 [Example 63e]
